Earlier results on 2 compounds are cited in patent US5032586A, “7-keto or hydroxy 3,5-diene steroids as inhibitors of steroid 5-alpha reductase” (SmithKline Beecham Corporation, priority 1989, dated 1991).

Broadly, the Ki is the dissociation constant of the complex between target and ligand, obtained from inhibition or displacement.

The test system of this series is 5-α-Reductase. Particulars: for Type of inhibition (Reversible/Irreversible): Table 1, printed with Ki; for Ki: literature values, Table 1.

Take `C=C1C[C@@H]2[C@H](CC[C@@]3(C)[C@H]2CC[C@]3(OC(C)=O)C(C)=O)[C@@]2(C)CCC(=O)C=C12` [(5)]: the “Type of inhibition (Reversible/Irreversible)” value is “Irreversible” and the inhibition constant Ki is 1250 nM. For the setting “literature description”, the “Inhibition of steroid 5-α-reductase, in words” value was “timedependent inactivator of steroid 5-α-reductase”.

Regarding `CCN(CC)C(=O)[C@H]1CC[C@H]2[C@@H]3CC[C@H]4N(C)C(=O)CC[C@]4(C)[C@H]3CC[C@]12C` [(4)], the “Type of inhibition (Reversible/Irreversible)” value is listed as “Reversible” and the Ki was 5 nM.
